Data from patent US10828250B2, “Topical formulation” (LIMEWAY PHARMA DESIGN LIMITED, priority 2015, dated 2020).

Columns and labels:
[1] = saturated solubility of corticosteroids in liquid silicones and in propylene glycol:glycerol(:water) mixtures; assay type: physicochemical; settings: for saturated solubility in propylene glycol:glycerol mixtures: as glycerol is added to propylene glycol, FIG. 8; for saturated solubility in propylene glycol:glycerol:water mixtures: as water is added to propylene glycol:glycerol 70:30, FIG. 9; for saturated solubility in liquid silicones: range of liquid silicones including caprylyl methicone, FIG. 1
Procedure: Similarly, active solubility may be reduced in the non-volatile residual phase. […] As glycerol is added to propylene glycol the solubility of FP and MF decreases. […] As water is added to propylene glycol:glycerol 70:30 the solubility of FP and MF decreases. Water may be present in certain embodiments of the formulation or may be present in the residual phase due to uptake of transepidermal water. Although water is a highly volatile solvent, humectant glycols retain water depending upon ambient conditions.

[2] = assay type: physicochemical
From the text: As described previously, diffusion coefficient-enhancing excipients (DC enhancers) for use in the present invention commonly comprise alcohol, acid or ester derivatives of C8-C22 hydrocarbons.
In the acid and alcohol series, FIG. 2, as carbon chain length increases, solubility in caprylyl methicone decreases to less than 0.1% w/w at C18, such that these higher carbon chain lengths may be considered unsuitable for use as the DC enhancer in the formulation of the present invention owing to low solubility-dissolution constraints. Conversely, lower carbon chain length acids and alcohols such as C8 and C10 alcohols and C8 and C10 acids may be considered to be far too soluble in hydrocarbyl methyl siloxanes including caprylyl methicone, such that their performance as diffusion coefficient-enhancing excipients would be adversely affected. Similarly, long chain (for instance C14-C16) isopropyl esters are far too soluble in hydrocarbyl methyl siloxanes such as caprylyl methicone to allow performance as DC enhancers. For both of these classes of DC enhancer, up to 50% DC enhancer would be required to be at or near saturation in the non-volatile residual phase. In contrast, the C12-C14 acids and C12 alcohol have appropriate solubility in caprylyl methicone.
Conversely, from C16-C22 solubility is too low to allow adequate performance. […]

## CCC(=O)O[C@]1(C(=O)SCF)[C@H](C)C[C@H]2[C@@H]3C[C@H](F)C4=CC(=O)C=C[C@]4(C)[C@@]3(F)[C@@H](O)C[C@@]21C [fluticasone propionate]
[1]
  saturated solubility in propylene glycol:glycerol mixtures: decreases
  saturated solubility in propylene glycol:glycerol:water mixtures: decreases
  saturated solubility in liquid silicones: appropriately low

## C[C@@H]1C[C@H]2[C@@H]3CCC4=CC(=O)C=C[C@]4(C)[C@@]3(Cl)[C@@H](O)C[C@]2(C)[C@@]1(OC(=O)c1ccco1)C(=O)CCl [mometasone furoate]
[1]
  saturated solubility in propylene glycol:glycerol mixtures: decreases
  saturated solubility in propylene glycol:glycerol:water mixtures: decreases
  saturated solubility in liquid silicones: appropriately low

## myrystyl alcohol [C14 alcohol]
[2]
  amount to saturate caprylyl methicone (solubility): 2.30%
  amount to saturate propylene glycol (solubility): 2.44%
